From ChEMBL document CHEMBL4007467, “Effects of 6-paradol, an unsaturated ketone from gingers, on cytochrome P450-mediated drug metabolism” (Bioorg Med Chem Lett, 2017)

Key:
Assay type in all cases: ADME
CYP2D6 [1] = target: T1, CYP2D6 (Homo sapiens, UniProt P10635); assay: Inhibition of CYP2D6 in human liver microsomes assessed as enzyme-mediated metabolite formation at 0.3 uM using dextromethorphan as substrate incubated for 5 mins followed by NADPH addition measured after 30 mins by LC-MS/MS analysis relative to control; set-up: scale not given: the % may be the effect or the level left; details: probe dextromethorphan, read-out: Activity
T1 sequence (P10635 whole entry): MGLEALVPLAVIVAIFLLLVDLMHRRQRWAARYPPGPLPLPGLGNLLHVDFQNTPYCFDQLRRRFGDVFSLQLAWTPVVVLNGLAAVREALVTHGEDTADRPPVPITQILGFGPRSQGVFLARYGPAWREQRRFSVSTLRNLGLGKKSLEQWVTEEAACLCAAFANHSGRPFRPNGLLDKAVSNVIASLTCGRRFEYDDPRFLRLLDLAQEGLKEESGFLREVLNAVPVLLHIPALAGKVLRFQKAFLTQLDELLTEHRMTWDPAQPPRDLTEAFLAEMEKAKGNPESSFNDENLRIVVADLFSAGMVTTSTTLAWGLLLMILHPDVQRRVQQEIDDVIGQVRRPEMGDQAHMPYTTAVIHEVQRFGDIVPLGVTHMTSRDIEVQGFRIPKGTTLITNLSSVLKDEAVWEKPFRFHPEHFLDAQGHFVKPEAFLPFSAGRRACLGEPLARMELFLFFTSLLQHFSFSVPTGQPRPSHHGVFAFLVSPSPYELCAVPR

CYP2C8 [2] = target: T2, CYP2C8 (Homo sapiens, UniProt P10632); assay: Inhibition of CYP2C8 in human liver microsomes assessed as enzyme-mediated metabolite formation at 30 uM using paclitaxel as substrate preincubated for 20 mins followed by substrate addition measured after 30 mins in presence of NADPH by LC-MS/MS analysis relative to control; set-up: scale not given: the % may be the effect or the level left; details: probe paclitaxel, read-out: Activity
T2 sequence (P10632 whole entry): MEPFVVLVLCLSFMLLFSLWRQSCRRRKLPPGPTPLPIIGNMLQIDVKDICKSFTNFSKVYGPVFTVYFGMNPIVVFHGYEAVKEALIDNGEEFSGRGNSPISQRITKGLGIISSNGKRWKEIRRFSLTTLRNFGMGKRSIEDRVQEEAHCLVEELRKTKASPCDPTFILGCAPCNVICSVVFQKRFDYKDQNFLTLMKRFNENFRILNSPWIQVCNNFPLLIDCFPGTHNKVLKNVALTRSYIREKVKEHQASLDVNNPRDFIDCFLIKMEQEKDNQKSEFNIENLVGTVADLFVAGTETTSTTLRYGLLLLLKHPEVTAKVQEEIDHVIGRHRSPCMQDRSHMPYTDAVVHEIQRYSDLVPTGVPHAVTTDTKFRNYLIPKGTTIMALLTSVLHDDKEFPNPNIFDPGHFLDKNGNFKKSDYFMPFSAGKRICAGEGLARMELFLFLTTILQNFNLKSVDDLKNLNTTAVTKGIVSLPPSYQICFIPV

CYP1A2 [3] = target: T3, CYP1A2 (Homo sapiens, UniProt P05177); assay: Inhibition of CYP1A2 in human liver microsomes assessed as enzyme-mediated metabolite formation at 3 uM using phenacetin as substrate preincubated for 20 mins followed by substrate addition measured after 30 mins in presence of NADPH by LC-MS/MS analysis relative to control; set-up: scale not given: the % may be the effect or the level left; details: probe phenacetin, read-out: Activity
T3 sequence (P05177 whole entry): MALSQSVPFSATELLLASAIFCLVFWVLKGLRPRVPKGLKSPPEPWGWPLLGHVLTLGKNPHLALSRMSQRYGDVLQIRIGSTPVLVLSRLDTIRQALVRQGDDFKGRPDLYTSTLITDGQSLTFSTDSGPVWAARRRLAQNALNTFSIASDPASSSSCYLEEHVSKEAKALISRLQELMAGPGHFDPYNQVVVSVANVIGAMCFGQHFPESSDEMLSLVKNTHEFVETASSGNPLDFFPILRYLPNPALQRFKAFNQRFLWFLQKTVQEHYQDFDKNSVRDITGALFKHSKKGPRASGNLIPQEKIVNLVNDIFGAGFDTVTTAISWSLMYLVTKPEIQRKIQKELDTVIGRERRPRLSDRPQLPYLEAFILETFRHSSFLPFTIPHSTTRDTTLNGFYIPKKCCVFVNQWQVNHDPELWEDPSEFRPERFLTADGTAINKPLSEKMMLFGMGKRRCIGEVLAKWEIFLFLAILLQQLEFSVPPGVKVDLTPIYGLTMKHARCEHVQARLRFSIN

CYP2D6 [4] = target: T1, CYP2D6; assay: Inhibition of CYP2D6 in human liver microsomes assessed as enzyme-mediated metabolite formation at 30 uM using dextromethorphan as substrate preincubated for 20 mins followed by substrate addition measured after 30 mins in presence of NADPH by LC-MS/MS analysis relative to control; set-up: scale not given: the % may be the effect or the level left; details: probe dextromethorphan, read-out: Activity
CYP2C19 = CYP2C19 (Homo sapiens, UniProt P33261); assay: Inhibition of CYP2C19 in human liver microsomes assessed as enzyme-mediated metabolite formation at 0.1 uM using (S)-mephenytoin as substrate preincubated for 20 mins followed by substrate addition measured after 30 mins in presence of NADPH by LC-MS/MS analysis relative to control; set-up: scale not given: the % may be the effect or the level left; details: probe (S)-mephenytoin, read-out: Activity
Sequence of CYP2C19 (P33261 whole entry): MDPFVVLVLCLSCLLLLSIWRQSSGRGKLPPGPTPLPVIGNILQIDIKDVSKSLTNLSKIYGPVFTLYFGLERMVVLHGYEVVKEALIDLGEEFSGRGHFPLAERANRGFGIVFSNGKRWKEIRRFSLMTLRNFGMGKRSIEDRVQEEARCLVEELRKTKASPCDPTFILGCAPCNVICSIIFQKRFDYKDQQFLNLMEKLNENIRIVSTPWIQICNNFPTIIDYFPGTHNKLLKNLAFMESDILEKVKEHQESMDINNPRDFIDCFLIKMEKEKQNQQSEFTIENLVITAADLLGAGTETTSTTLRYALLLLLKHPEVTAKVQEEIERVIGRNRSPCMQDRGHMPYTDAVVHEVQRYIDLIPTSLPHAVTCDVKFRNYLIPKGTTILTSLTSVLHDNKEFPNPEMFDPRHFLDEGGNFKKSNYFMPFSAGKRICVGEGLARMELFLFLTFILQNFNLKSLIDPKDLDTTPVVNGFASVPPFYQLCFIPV

Cytochrome P450 2A6 = target: T4, Cytochrome P450 2A6 (Homo sapiens, UniProt P11509); assay: Inhibition of CYP2A6 in human liver microsomes using coumarin as substrate preincubated for 20 mins followed by substrate addition measured after 30 mins in presence of NADPH by LC-MS/MS analysis
T4 sequence (P11509 whole entry): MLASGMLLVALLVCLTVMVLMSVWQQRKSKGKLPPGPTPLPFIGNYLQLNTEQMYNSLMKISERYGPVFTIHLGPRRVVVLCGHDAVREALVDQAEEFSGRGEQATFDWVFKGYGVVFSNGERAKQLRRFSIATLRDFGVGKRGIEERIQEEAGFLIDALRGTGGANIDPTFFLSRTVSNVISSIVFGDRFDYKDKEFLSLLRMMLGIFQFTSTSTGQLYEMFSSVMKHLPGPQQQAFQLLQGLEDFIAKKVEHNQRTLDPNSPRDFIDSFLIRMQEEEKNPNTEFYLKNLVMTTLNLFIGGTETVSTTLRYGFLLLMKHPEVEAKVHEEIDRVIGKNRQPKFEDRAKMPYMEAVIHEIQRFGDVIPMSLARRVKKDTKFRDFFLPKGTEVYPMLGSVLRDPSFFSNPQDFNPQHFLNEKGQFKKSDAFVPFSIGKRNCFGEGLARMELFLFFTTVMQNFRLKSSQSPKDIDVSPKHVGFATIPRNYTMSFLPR

CYP2C8 [5] = target: T2, CYP2C8; assay: Inhibition of CYP2C8 in human liver microsomes assessed as enzyme-mediated metabolite formation at 10 uM using paclitaxel as substrate preincubated for 20 mins followed by substrate addition measured after 30 mins in presence of NADPH by LC-MS/MS analysis relative to control; set-up: scale not given: the % may be the effect or the level left; details: probe paclitaxel, read-out: Activity
CYP2A6 = target: T5, CYP2A6 (Homo sapiens, UniProt P11509); assay: Inhibition of CYP2A6 in human liver microsomes assessed as enzyme-mediated metabolite formation at 10 uM using coumarin as substrate preincubated for 20 mins followed by substrate addition measured after 30 mins in presence of NADPH by LC-MS/MS analysis relative to control; set-up: scale not given: the % may be the effect or the level left; details: probe coumarin, read-out: Activity
T5 sequence (P11509 whole entry): T4 sequence (P11509 whole entry)

CYP1A2 [6] = target: T3, CYP1A2; assay: Inhibition of CYP1A2 in human liver microsomes assessed as enzyme-mediated metabolite formation at 10 uM using phenacetin as substrate preincubated for 20 mins followed by substrate addition measured after 30 mins in presence of NADPH by LC-MS/MS analysis relative to control; set-up: scale not given: the % may be the effect or the level left; details: probe phenacetin, read-out: Activity
CYP3A4 [7] = target: T6, CYP3A4 (Homo sapiens, UniProt P08684); assay: Inhibition of CYP3A4 in human liver microsomes assessed as enzyme-mediated metabolite formation at 10 uM using midazolam as substrate preincubated for 20 mins followed by substrate addition measured after 30 mins in presence of NADPH by LC-MS/MS analysis relative to control; set-up: scale not given: the % may be the effect or the level left; details: probe midazolam, read-out: Activity
T6 sequence (P08684 whole entry): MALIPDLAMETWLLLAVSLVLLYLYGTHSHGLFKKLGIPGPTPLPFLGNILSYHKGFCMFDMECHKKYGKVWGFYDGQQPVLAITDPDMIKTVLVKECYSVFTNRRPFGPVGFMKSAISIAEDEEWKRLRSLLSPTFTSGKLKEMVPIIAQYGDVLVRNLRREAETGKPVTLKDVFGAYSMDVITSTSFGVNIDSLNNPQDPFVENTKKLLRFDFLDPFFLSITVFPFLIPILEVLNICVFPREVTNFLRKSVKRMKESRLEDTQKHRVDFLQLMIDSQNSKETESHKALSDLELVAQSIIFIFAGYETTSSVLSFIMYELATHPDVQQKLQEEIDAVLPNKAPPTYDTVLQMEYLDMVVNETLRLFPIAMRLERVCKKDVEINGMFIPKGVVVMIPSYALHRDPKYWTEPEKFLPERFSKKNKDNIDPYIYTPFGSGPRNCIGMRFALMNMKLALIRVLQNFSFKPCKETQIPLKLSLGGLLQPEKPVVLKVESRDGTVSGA

CYP3A4 [8] = target: T6, CYP3A4; assay: Inhibition of CYP3A4 in human liver microsomes assessed as enzyme-mediated metabolite formation at 30 uM using midazolam as substrate incubated for 5 mins followed by NADPH addition measured after 30 mins by LC-MS/MS analysis relative to control; set-up: scale not given: the % may be the effect or the level left; details: probe midazolam, read-out: Activity
CYP2C9 = CYP2C9 (Homo sapiens, UniProt P11712); assay: Inhibition of CYP2C9 in human liver microsomes assessed as enzyme-mediated metabolite formation at 1 uM using diclofenac as substrate incubated for 5 mins followed by NADPH addition measured after 30 mins by LC-MS/MS analysis relative to control; set-up: scale not given: the % may be the effect or the level left; details: probe diclofenac, read-out: Activity
Sequence of CYP2C9 (P11712 whole entry): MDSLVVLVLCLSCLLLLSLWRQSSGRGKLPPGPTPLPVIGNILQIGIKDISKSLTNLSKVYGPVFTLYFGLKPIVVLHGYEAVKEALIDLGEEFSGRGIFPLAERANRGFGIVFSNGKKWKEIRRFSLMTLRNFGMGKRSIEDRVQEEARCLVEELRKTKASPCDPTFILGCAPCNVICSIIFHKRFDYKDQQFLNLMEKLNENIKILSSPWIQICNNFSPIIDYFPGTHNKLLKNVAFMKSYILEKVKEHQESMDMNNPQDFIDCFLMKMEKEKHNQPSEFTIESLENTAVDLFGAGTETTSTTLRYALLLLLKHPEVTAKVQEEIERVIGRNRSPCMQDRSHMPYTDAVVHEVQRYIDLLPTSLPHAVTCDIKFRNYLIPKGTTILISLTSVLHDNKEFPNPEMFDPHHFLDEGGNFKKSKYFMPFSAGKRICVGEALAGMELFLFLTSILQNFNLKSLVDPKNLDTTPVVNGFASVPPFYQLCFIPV

Q: For `CCCCCCCC(=O)CCc1ccc(O)c(OC)c1`, which activity at 0.5 h, 0.3 µM (CYP2D6 [1]) is on record?
A: Its activity at 0.5 h, 0.3 µM is 76%.

Q: What about the activity at 0.5 h, 30 µM (CYP2C8 [2]) of the same compound?
A: The activity at 0.5 h, 30 µM was 40.2%.

Q: What about the activity at 0.5 h, 3 µM (CYP1A2 [3]) of the same compound?
A: Its activity at 0.5 h, 3 µM is 76.5%.

Q: And the activity at 0.5 h, 30 µM (CYP2D6 [4])?
A: Its activity at 0.5 h, 30 µM is 80.1%.

Q: And the activity at 0.5 h, 0.1 µM (CYP2C19)?
A: The activity at 0.5 h, 0.1 µM was 102%.

Q: And the IC50 (Cytochrome P450 2A6)?
A: The IC50 was greater than 30 µM.

Q: What about the activity at 0.5 h, 10 µM (CYP2C8 [5]) of the same compound?
A: The activity at 0.5 h, 10 µM was 49%.

Q: What about the activity at 0.5 h, 10 µM (CYP2A6) of the same compound?
A: Its activity at 0.5 h, 10 µM is 96.1%.

Q: What about the activity at 0.5 h, 10 µM (CYP1A2 [6]) of the same compound?
A: Its activity at 0.5 h, 10 µM is 59%.

Q: What about the activity at 0.5 h, 10 µM (CYP3A4 [7]) of the same compound?
A: The activity at 0.5 h, 10 µM was 110%.

Q: What about the activity at 0.5 h, 30 µM (CYP3A4 [8]) of the same compound?
A: The activity at 0.5 h, 30 µM was 72%.

Q: What about the activity at 0.5 h, 1 µM (CYP2C9) of the same compound?
A: The activity at 0.5 h, 1 µM was 76.6%.
